Converted amounts (≈) assume the structure as drawn. Read-outs that look alike come from different tables or passages of the source.
Legend:
Escherchia coli 10418 = experiment: MIC, method of Example 30 with 1/100 dilution of overnight broth (Example 46)
Method: (§1) The cultures were incubated overnight and the points of bacterial growth recorded next morning by observing the turbidity of the culture.

Staph. aureus Oxford = experiment: as above
Method: as §1

[1] = test system: strains of Klebsiella aerogenes (A, E 70, 62); experiment: Growth inhibition of the test organisms of Table 8 by the esters alone; conditions: read-out: concentration at which growth of the test organisms was not inhibited
Method: The final dilution of the inoculum was 0.5 ×10^-2. The tray was incubated at 37° C overnight and a record made next morning of the end points of bacterial growth.

Bacillus subtilis A = experiment: MIC, method of Example 30 with 1/100 dilution of overnight broth (Example 46)
Method: as §1

Staph. aureus Russell = experiment: as above
Method: as §1

Klebsiella aerogenes 62 = experiment: MIC / synergism, microtitre method (Example 42); assay type: cell-based; conditions: for Antibacterial synergism value, +5μg/ml. synergist (M.I.C. by method of Example 42): +5μg/ml. synergist (clavulanic acid sodium salt); for MIC: Klebsiella aerogenes, 62, Alone (Tables 7, 8), Example 42 records M.I.C. in μg/ml, read-out: Antibacterial synergism value, Alone (M.I.C. by method of Example 42)
[2] = test system: Klebsiella aerogenes E 70; experiment: MIC / synergism, microtitre method (Example 42); assay type: cell-based; conditions: for Antibacterial synergism value, +5μg/ml. synergist (M.I.C. by method of Example 42): +5μg/ml. synergist (clavulanic acid sodium salt); for MIC: Klebsiella aerogenes
Klebsiella aerogenes A [3] = experiment: Growth inhibition / synergism; assay type: cell-based; conditions: for MIC: Klebsiella aerogenes, agent alone, read-out: concentration in whose presence growth is not inhibited; for concentration inhibiting growth when 5 μg/ml. of clavulanic acid is also present: plus 5 μg/ml clavulanic acid
Klebsiella aerogenes A [4] = experiment: MIC / synergism, microtitre method (Example 42); assay type: cell-based; conditions: for Antibacterial synergism value, +5μg/ml. synergist (M.I.C. by method of Example 42): +5μg/ml. synergist (clavulanic acid sodium salt); for MIC: Klebsiella aerogenes, Alone (Tables 7, 8), Example 42 records M.I.C. in μg/ml, read-out: Antibacterial synergism value, Alone (M.I.C. by method of Example 42)
[5] = test system: Staphylococcus aureus (Russell); experiment: MIC / synergism, microtitre method (Example 42); assay type: cell-based
Proteus mirabilis 899 = experiment: microbe, parasite or virus in culture; assay type: cell-based; conditions: method of Example 42
[6] = test system: Staphylococcus aureus (Russell); experiment: M.I.C. synergism with clavulanic acid methyl ester (Example 32); assay type: cell-based
Staphylococcus aureus = experiment: MIC / synergism, microtitre method (Example 42); assay type: cell-based
[7] = Hydrolysis of the methyl ester to clavulanic acid in pH 7 buffer; assay type: physicochemical
Method: The reaction was followed by paper chromatography (bioautographic system). Using the butanol/ethanol/water system to follow the reaction over a period of 2 hours the zone of the methyl ester at Rf 0.79 decreased in size as the zone of clavulanic acid at Rf 0.12 increased.

bacteria = experiment: Tests for antibacterial activity in broth (Example 32); assay type: cell-based; conditions: may be due to clavulanic acid liberated by hydrolysis
[8] = biological target: T1, β-lactamase produced by Escherichia coli JT4 (Escherichia coli, UniProt P62593); experiment: β-lactamase inhibition assay (Description 1); assay type: biochemical
T1 construct: This cell suspension was then disrupted in an MSE ultrasonic disintegrator; endogenous in cells; supernatant of sonicated cells
T1 sequence (P62593 24-286 limits assumed): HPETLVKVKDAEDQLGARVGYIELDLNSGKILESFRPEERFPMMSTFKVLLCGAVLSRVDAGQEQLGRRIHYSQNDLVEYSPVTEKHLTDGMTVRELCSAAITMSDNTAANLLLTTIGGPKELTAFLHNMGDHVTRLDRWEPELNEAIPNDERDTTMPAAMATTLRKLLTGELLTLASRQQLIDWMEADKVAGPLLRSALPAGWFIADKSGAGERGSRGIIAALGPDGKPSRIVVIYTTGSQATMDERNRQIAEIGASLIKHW
Method: Solutions containing clavulanic acid (culture filtrate, samples from isolation procedure and the like) are incubated for 15 minutes with a β-lactamase preparation in 0.05M phosphate buffer at pH 7 and 37° C. During this time, enzyme inhibition or inactivation occurs. Substrate (benzylpenicillin) is then added and incubation continued for 30 minutes at 37° C. The amount of enzymic degradation of the substrate to penicilloic acid is determined by the hydroxylamine assay for penicillin. The amount of β-lactamase used is such as to give 75% hydrolysis of the benzylpenicillin in 30 minutes at 37° C.
The extent of hydrolysis is a reflection of the amount of enzyme remaining uninhibited.
The β-lactamase produced by Escherichia coli JT4 is used as an enzyme. […] Other similar R-factor controlled β-lactamases may be used if desired.
For use in the assay procedure, the supernatant is diluted in 0.005M phosphate buffer until it gives about 75% hydrolysis of a 1 mg/ml. solution of benzylpenicillin in 30 minutes at 37° C.
Suitable dilutions of the inhibitor preparation and β-lactamase solution are mixed and incubated at 37° C for 15 minutes (Test). […] The absorption of the final solutions is measured in an E.E.L. Colorimeter or a Spectrophotometer at 490 nm against the reagent blank.
The percentage inhibition of the β-lactamase is calculated as follows […]

[9] = test system: Staphylococcus aureus Russell; experiment: Growth inhibition / synergism; assay type: cell-based; conditions: Staphylococcus aureus; agent alone; read-out: concentration in whose presence growth is not inhibited
[10] = heavy inoculum, 1/100 dilution of overnight broth, Example 30 records MIC in μg/ml
[11] = Staphylococcus aureus, agent alone (Tables 5, 6), inoculum final dilution 0.5 ×10^-2, 37° C overnight, read-out: Minimum Inhibitory Concentration
[12] = plus 5 μg/ml clavulanic acid sodium salt, method of Example 42

O=C(OCc1ccccc1)[C@H]1/C(=C/CO)O[C@@H]2CC(=O)N21 [Benzyl ester, benzyl ester of 3-(β-hydroxyethylidine)-7-oxo-4-oxa-1-azabicyclo [3,2,0]heptane-2-carboxylic acid]
MIC (Escherchia coli 10418): 125 µg/mL (≈ 432 µM)
MIC (Staph. aureus Oxford; Staphylococcus aureus): 62 µg/mL (≈ 214 µM)
MIC [1]: > 100 µg/mL
MIC (Bacillus subtilis A; Bacillus subtilis): 250 µg/mL (≈ 864 µM)
MIC (Staph. aureus Russell; Staphylococcus aureus): 125 µg/mL (≈ 432 µM)

CC1(C)S[C@@H]2[C@H](NC(=O)Cc3ccccc3)C(=O)N2[C@H]1C(=O)O [Benzylpenicillin, benzylpenicillin]
Antibacterial synergism value, +5μg/ml. synergist (M.I.C. by method of Example 42) (Klebsiella aerogenes 62): 15.6
MIC (Klebsiella aerogenes 62): 250 µg/mL
Antibacterial synergism value, +5μg/ml. synergist (M.I.C. by method of Example 42) [2]: 15.6
MIC ([2]; E70, read-out: Antibacterial synergism value, Alone (M.I.C. by method of Example 42)): 500 µg/mL
MIC (Klebsiella aerogenes A [3]): > 125 µg/mL
concentration inhibiting growth when 5 μg/ml. of clavulanic acid is also present (Klebsiella aerogenes A [3]): less than 12.5 μg/ml
Antibacterial synergism value, +5μg/ml. synergist (M.I.C. by method of Example 42) (Klebsiella aerogenes A [4]): 7.8
MIC (Klebsiella aerogenes A [4]): 250 µg/mL

CCCCCCCCCOC(=O)[C@H]1/C(=C/CO)O[C@@H]2CC(=O)N21 [Nonyl ester, Nonyl Clavulanate]
MIC (Escherchia coli 10418): 250 µg/mL (≈ 768 µM)
MIC (Staph. aureus Oxford; Staphylococcus aureus): 31 µg/mL (≈ 95.3 µM)
MIC (Bacillus subtilis A; Bacillus subtilis): 31 µg/mL (≈ 95.3 µM)
MIC (Staph. aureus Russell; Staphylococcus aureus): 31 µg/mL (≈ 95.3 µM)

O=C1OC(OC(=O)[C@H]2/C(=C/CO)O[C@@H]3CC(=O)N32)c2ccccc21 (stereo partly drawn) [Phthalidyl ester, Clavulanic Acid Phthalide Esters]
MIC (Escherchia coli 10418; [10]): 125
MIC (Staph. aureus Oxford; [10]): 31
MIC (Bacillus subtilis A; [10]): 125
MIC (Staph. aureus Russell; [10]): 15

CC(C)(C)C(=O)OCOC(=O)[C@H]1/C(=C/CO)O[C@@H]2CC(=O)N21 [Pivaloyloxymethyl ester, Pivaloyloxymethyl Clavulanate]
MIC (Escherchia coli 10418): 125 µg/mL (≈ 399 µM)
MIC (Staph. aureus Oxford; Staphylococcus aureus): 31 µg/mL (≈ 98.9 µM)
MIC (Bacillus subtilis A; Bacillus subtilis): 62 µg/mL (≈ 198 µM)
MIC (Staph. aureus Russell; Staphylococcus aureus): 62 µg/mL (≈ 198 µM)

CC1(C)S[C@@H]2[C@H](NC(=O)C(C(=O)O)c3ccccc3)C(=O)N2[C@H]1C(=O)O (stereo partly drawn) [carbenicillin]
Antibacterial synergism value, +5μg/ml. synergist (M.I.C. by method of Example 42) (Klebsiella aerogenes 62): 7.8
MIC (Klebsiella aerogenes 62): 125 µg/mL
Antibacterial synergism value, +5μg/ml. synergist (M.I.C. by method of Example 42) [2]: 15
MIC ([2]; E70, Alone (Tables 7, 8), Example 42 records M.I.C. in μg/ml, read-out: Antibacterial synergism value, Alone (M.I.C. by method of Example 42)): 500 µg/mL
MIC (Klebsiella aerogenes A [3]): > 125 µg/mL
concentration inhibiting growth when 5 μg/ml. of clavulanic acid is also present (Klebsiella aerogenes A [3]): less than 12.5 μg/ml
Antibacterial synergism value, +5μg/ml. synergist (M.I.C. by method of Example 42) (Klebsiella aerogenes A [4]): 7.8
MIC (Klebsiella aerogenes A [4]): 500 µg/mL

O=C(Cc1cccs1)N[C@@H]1C(=O)N2C(C(=O)[O-])=C(C[n+]3ccccc3)CS[C@H]12 [cephaloridine]
MIC [5, 11]: 3.1 µg/mL
Minimum Inhibitory Concentration in presence of 5μg/ml clavulanic acid sodium salt [5, 12]: < 0.03 µg/mL
MIC (Proteus mirabilis 899; Proteus mirabilis, 899, agent alone, * = Tailing Point, read-out: Minimum Inhibitory Concentration): 62 µg/mL (≈ 149 µM)
Minimum Inhibitory Concentration in presence of 5μg/ml clavulanic acid sodium salt (Proteus mirabilis 899; plus 5 μg/ml clavulanic acid sodium salt): 7.5 µg/mL
M.I.C. in the presence of 1.0 μg/ml. clavulanic acid methyl ester [6]: < 0.03 µg/mL
MIC ([6]; Staphylococcus aureus, antibiotic alone, read-out: minimum inhibitory concentration (M.I.C.)): 1.5 µg/mL
MIC (Staphylococcus aureus; [11]): 15 µg/mL
Minimum Inhibitory Concentration in presence of 5μg/ml clavulanic acid sodium salt (Staphylococcus aureus; [12]): 3.7 µg/mL

COC(=O)[C@H]1/C(=C/CO)O[C@@H]2CC(=O)N21 [clavulanic acid methyl ester]
conversion of the ester to clavulanic acid ([7]; 1 mg/ml, 37° C, 0.05M phosphate buffer pH 7, followed over 2 hours by paper chromatography): Slow conversion of the ester to clavulanic acid
hydrolysis to clavulanic acid ([7]; water buffered to pH7): slowly hydrolyze to clavulanic acid
MIC [1]: > 100 µg/mL
MIC (Klebsiella aerogenes A [3]): > 10 µg/mL
antibacterial activity in broth (bacteria): broad spectrum activity but of a lower order than shown by clavulanic acid

O=C(O)[C@H]1/C(=C/CO)O[C@@H]2CC(=O)N21 [clavulanic acid, Z-(2R,5R)-3-(β-hydroxyethylidene)-7-oxo-4-oxa-1-azabicyclo[3,2,0]heptane-2-carboxylic acid]
mode of inhibition of the β-lactamase of Escherichia coli [8]: progressively and irreversibly inhibits
MIC [9]: > 5 µg/mL

— patent US4060530A, “Clavulanic acid amides” (Beecham Group Limited, priority 1975, dated 1977)
